Where “and” joins values, the source holds several entries; their conditions need not be identical. Equal entries are not always repeated. Where two headings read alike, the source gives them in different places.
Experiments:
[1] = system: Shionogi mouse mammary carcinoma cells; experiment: Androgenic/antiandrogenic activity on DHT-stimulated Shionogi cell growth; type: cell-based; conditions: for Shionogi VS OH-FLU: ratio of Ki hydroxyflutamide versus tested compound
Human Androgen Receptor = target: T1, Human Androgen Receptor (Homo sapiens, UniProt P10275); experiment: Androgen receptor binding assay (hydroxylapatite, [3H]R1881, cytosol of transfected HEK-293 cells); conditions: for Androgen Receptor Binding (%) Human RBA R1881 = 100: % RBA=100×IC50 R1881/IC50 compound, transfected cells; for RBA human: Table 4, relative to R1881
T1 sequence (P10275 1-920): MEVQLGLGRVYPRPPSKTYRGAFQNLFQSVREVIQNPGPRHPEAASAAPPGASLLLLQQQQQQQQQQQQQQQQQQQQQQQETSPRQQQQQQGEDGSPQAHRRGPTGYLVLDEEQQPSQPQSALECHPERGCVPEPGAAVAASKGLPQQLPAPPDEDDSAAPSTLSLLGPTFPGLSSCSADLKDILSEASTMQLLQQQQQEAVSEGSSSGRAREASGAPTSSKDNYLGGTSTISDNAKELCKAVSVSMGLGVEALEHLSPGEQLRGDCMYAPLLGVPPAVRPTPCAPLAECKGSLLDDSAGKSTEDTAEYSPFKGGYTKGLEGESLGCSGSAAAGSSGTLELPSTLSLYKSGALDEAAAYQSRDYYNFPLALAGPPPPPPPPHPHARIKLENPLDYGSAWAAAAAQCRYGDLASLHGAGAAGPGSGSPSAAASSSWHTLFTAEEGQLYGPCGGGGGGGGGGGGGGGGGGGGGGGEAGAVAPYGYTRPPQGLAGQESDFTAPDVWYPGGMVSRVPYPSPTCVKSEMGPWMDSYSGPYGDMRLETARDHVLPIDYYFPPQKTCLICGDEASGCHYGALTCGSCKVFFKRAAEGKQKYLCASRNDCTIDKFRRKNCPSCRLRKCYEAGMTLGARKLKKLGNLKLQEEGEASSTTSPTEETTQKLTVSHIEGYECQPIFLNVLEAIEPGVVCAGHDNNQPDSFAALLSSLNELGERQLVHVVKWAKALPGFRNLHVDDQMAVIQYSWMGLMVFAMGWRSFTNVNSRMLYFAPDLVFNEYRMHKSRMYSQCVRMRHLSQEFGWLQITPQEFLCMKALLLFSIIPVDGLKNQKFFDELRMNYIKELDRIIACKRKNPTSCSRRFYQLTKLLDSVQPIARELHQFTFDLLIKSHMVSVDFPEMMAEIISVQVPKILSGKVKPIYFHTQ

rat prostate = experiment: Systemic antiandrogenic activity, orchidectomized immature male rats with DHT implant: prostate weight; type: in vivo; conditions: for inhibition in vivo at 0.5 mg: Rattus norvegicus, 168 h
Experimental: (§1) Immature male rats (Crl:CD(SD)Br) 22 to 24-day old were obtained from Charles-River, Inc. (St-Constant, Quebec, Canada) and housed up to 5 per cage in plastic bins in a temperature (23±1° C.)- and light (12 h light/day, lights on at 7 h15)-controlled environment. The rats were fed rodent chow and tap water ad libitum. The day following their arrival, the animals were orchidectomized (CX) under Isoflurane anesthesia via scrotal route and randomly assigned to groups of 5 animals.
(§2) Compounds were solubilized (when possible) in dimethylsulfoxide (DMSO, 10% final concentration) and administered as suspension in 0.4% methylcellulose. […] One group of animals received the antiandrogen Flutamide as reference. The animals were killed by cervical dislocation under isoflurane anesthesia on the 8th morning following castration. The ventral prostate and seminal vesicles were rapidly dissected and weighed.
(§3) W is the weight of the prostate or the seminal vesicle.

rat seminal vesicle = experiment: Systemic antiandrogenic activity, orchidectomized immature male rats with DHT implant: seminal vesicle weight; type: in vivo; conditions: for inhibition in vivo at 0.5 mg: Rattus norvegicus, 168 h
Experimental: as §1, §2, §3

[2] = system: sebaceous glands of the left ear; experiment: Topical antiandrogenic activity, ear sebaceous glands model in the male hamster; type: in vivo; conditions: Mesocricetus auratus, 336 h, topical on left pinna, read-out: Antiandrogenic activity in Hamster Ear Area Inh Vs Cx (%); for inhibition in vivo at 0.1 mg: 100 μg daily for 14 days; for inhibition in vivo at 0.01 mg: 10 μg daily for 14 days
Experimental: The antiandrogenic activity of compounds for topical use was determined using the ear sebaceous glands model in the male hamster.
Male Golden Syrian Hamsters (SYR) of 110-120 g were obtained from Harlan Sprague-Dawley (Madison, USA) and housed up to 2 per plastic cage in a temperature (22±3° C.) and light (12 h light/day, lights on at 7 h15)-controlled environment. The hamsters were fed with Certified Rodent Diet 5002 (pellet) and had access to tap water ad libitum. The animals were acclimatized for at least five days prior to beginning the study. Animals were randomly assigned to groups of eight hamsters. One group of hamsters were castrated under isoflurane-induced anesthesia on the day of dosing initiation (SD 1) and used as control group.
To evaluate the antiandrogenic activity, the tested compounds were applied topically on the inner part of the left ear, once daily, for 14 days. […] For animals of the castrated and intact control groups, one ten-μL vehicle was applied onto the left ear. No solution was applied on the right ear.
On Study Day 15, the hamsters were euthanized by cervical dislocation under isoflurane anesthesia. The left and right ears were collected attached together by the head skin, flat fixed on a paper and then immersed in 10% neutral buffered formalin. Punctures making a circular hole of 6 mm were made on the flat fixed ear in the region where the solution has been applied. These punch-made specimens were collected from each ear. Using a scalpel blade, the collected 6 mm round ear specimens were cut in the middle between the two cartilage ridges. The two equal parts of the ear round specimens were embedded in paraffin. After processing the tissue, the two parts were vertically embedded parallel to each other in such a way that the flat 6 mm area was facing out. From each paraffin block, one section (5 μm thick) was cut and collected on a glass slide. Thus, each slide contained two elongated sections of 6 mm length. Slides were stained with hematoxylin and eosin.
Using the video camera and the lens number X5 of the light microscope, the resulting field appearing on the screen has a length of 0.953 mm. When the first 6 mm long section was examined from the left to the right, the first and second fields were ignored and the third and fourth fields were captured for analysis by the image analyzer. Each field has the length of 0.953 mm. With the help of the screen mouse, the sebaceous glands within the whole field length (0.953 mm) were marked. Also, an area having the length of the whole field and the height between stratum granulosum and the upper edge of the cartilage was drawn.
The total area of the sebaceous glands (μm^2) in each examined field was calculated by the Image Analyser. We also measured the total area, which has the length of 0.953 mm and the height between stratum granulosum and the cartilage. In addition, the percentage of the area occupied by the glands was obtained. Thus, for each ear, two sections were cut and two fields from each section were analyzed. The total of the four readings was averaged and the mean standard error of the mean was calculated by the image analyzer. The results were expressed in μm^2 as the total surface of glands per field and also as percentage of the area occupied by the glands in the tissue.

[3] = Mus musculus, read-out: Shionogi Antiandrogenic activity IC50 (nM), inhibition of DHT-stimulated Shionogi cell number
[4] = sc, read-out: IN VIVO Rat s.c. (+DHT) Prostate % inhibition, s.c., 0.5 mg/animal once daily for 7 days, +DHT
[5] = sc, read-out: IN VIVO Rat s.c. (+DHT) SV % inhibition, s.c., 0.5 mg/animal once daily for 7 days, +DHT
[6] = Mus musculus, read-out: Shionogi IC50 (nM), Table 4, inhibition of DHT-stimulated Shionogi cell number
[7] = po, 0.5 mg, per os, read-out: Prostate Rat Inh % inh (0.5 mg, per os)
[8] = po, 0.5 mg, per os, read-out: SV RAT Inh % inh (0.5 mg, per os)
[9] = read-out: Shionogi Antiandrogenic activity IC50, inhibition of DHT-stimulated Shionogi cell number
[10] = s.c., 0.5 mg/animal once daily for 7 days, +DHT

Compound | IC50 [1, 3] | Androgen Receptor Binding (%) Human RBA R1881 = 100 (Human Androgen Receptor) | inhibition in vivo at 0.5 mg (rat prostate; [4]) | inhibition in vivo at 0.5 mg (rat seminal vesicle; [5]) | IC50 [1, 6] | RBA human (Human Androgen Receptor) | also measured
CCCC(NC(CC)CC)c1cccc(OCC[C@]23CCC4C5CCC(=O)C=C5C(C)(C)CC4C2CC[C@]3(C)O)c1 (mixture of isomers) [EM-7075] | 9.7 nM | 57% | 0% | 0% | – | – | –
CCC(CC)N(C)C(CC)c1cccc(OCC[C@]23CCC4C5CCC(=O)C=C5C[C@@H](C)C4C2CC[C@]3(C)O)c1 (mixture of isomers) [EM-7127] | 0.91 nM | 128% | 20% | 0% | – | – | –
CCCC(NC(CC)CC)c1cccc(OCC[C@]23CCC4C5CCC(=O)C=C5C[C@@H](C)C4C2CC[C@@H]3O)c1 (mixture of isomers) [EM-7128] | 0.75 nM | 120% | 41% | 2% | – | – | –
CCCC(NC(CC)CC)c1cccc(OCC[C@]23CCC4C5CCC(=O)C=C5C[C@@H](C)C4C2CC[C@]3(C)O)c1 (mixture of isomers) [EM-7129] | 0.96 nM | 197% | 37% | 10% | – | – | –
CCCC(NC(C)C)c1cccc(OCC[C@]23CCC4C(CCC5=CC(=O)CC[C@@]54C)C2CC[C@]3(C)O)c1 (mixture of isomers) [EM-7133] | 1.1 nM | 55% | 32% | 40% | – | – | –
CCC[C@H](NC(CC)CC)c1cccc(OCC[C@]23CCC4C(CCC5CC(=O)CC[C@@]54C)C2CC[C@@H]3O)c1 (stereo in doubt) [EM-6445] | 0.2 nM | 168% | – | – | 0.2 nM | 336% | Shionogi VS OH-FLU ([1]; Table 4): 231; inhibition in vivo at 0.1 mg [2]: 96%; inhibition in vivo at 0.5 mg (rat prostate; [7]): 3%; inhibition in vivo at 0.5 mg (rat seminal vesicle; [8]): 0%
CCC(CC)NC(CC)c1cccc(OCC[C@]23CCC4C(CCC5CC(=O)CC[C@@]54C)C2CC[C@@H]3O)c1 (stereo partly shown) [EM-6339] | 2.3 nM | 240% and 236% | – | – | 2.3 nM | 236% | IC50 [1, 9]: 3 nM; IC50 ([1]; read-out: Shionogi IC50, Table 4, inhibition of DHT-stimulated Shionogi cell number): 3 nM; inhibition in vivo at 0.01 mg [2]: 55%; inhibition in vivo at 0.1 mg [2]: 67%
CCN(C1CCCCC1)[C@H](C)c1cccc(OCC[C@]23CCC4C(CCC5CC(=O)CC[C@@]54C)C2CC[C@@H]3O)c1 (stereo partly shown) [EM-6414] | 4 nM | 121% | – | – | 4 nM | 71% | Shionogi VS OH-FLU ([1]; Table 4): 1; inhibition in vivo at 0.01 mg [2]: 55%; inhibition in vivo at 0.1 mg [2]: 64%; inhibition in vivo at 0.5 mg (rat prostate; [7]): 6%; inhibition in vivo at 0.5 mg (rat seminal vesicle; [8]): 28%
CC(NC1CCCCC1)c1cccc(OCC[C@]23CCC4C(CCC5C/C(=N\O)CC[C@@]54C)C2CC[C@@H]3O)c1 (stereo partly shown) [EM-6418] | 5 nM | 31% | 21% | 13% | – | – | IN VIVO Rat (+DHT) Prostate % inhibition (per os) (rat prostate; per os, +DHT): 16%; IN VIVO Rat (+DHT) SV % inhibition (per os) (rat seminal vesicle; per os, +DHT): 32%
CCC[C@H](NC1CCCCC1)c1cccc(OCC[C@]23CCC4C(CCC5CC(=O)CC[C@@]54C)C2CCC3=O)c1 (stereo partly shown) [EM-6736] | – | – | – | – | 1.8 nM | 154% | Shionogi VS OH-FLU ([1]; Table 4): 43; inhibition in vivo at 0.01 mg [2]: 49.5%
CC(C)CNC(C)(C)c1cccc(OCC[C@]23CCC4C(CCC5CC(=O)CC[C@@]54C)C2CCC3=O)c1 (stereo partly shown) [EM-6741] | – | – | – | – | 0.6 nM | 230% | Shionogi VS OH-FLU ([1]; Table 4): 153; inhibition in vivo at 0.01 mg [2]: 51.7%
CCC(NC1CCCC1)c1cc(F)cc(OCC[C@]23CCC4C(CCC5CC(=O)CC[C@@]54C)C2CC[C@@H]3O)c1 (stereo partly shown) [EM-6761] | 1.2 nM | 141% | 33% | 0% | – | – | –
CCCC(NC(CC)CC)c1cccc(OCC[C@]23CCC4C(CCC5=CC(=O)CC[C@@]54C)C2CC[C@@H]3O)c1 (stereo partly shown) [EM-6841] | – | 139% | – | – | – | – | IC50 [1, 9]: 0.1 nM; IN VIVO Rat s.c. (+DHT) Prostate % inhibition (rat prostate; [10]): 21%; IN VIVO Rat s.c. (+DHT) SV % inhibition (rat seminal vesicle; [10]): 5%
CCC(CC)N(C)C(CC)c1cccc(OCC[C@]23CCC4C5CCC(=O)C=C5CCC4C2CC[C@]3(C)O)c1 (stereo partly shown) [EM-6902] | 0.06 nM | 107% | 2% | 0% | – | – | –
CCC(CC)NC(CN(C)C)c1cccc(OCC[C@]23CCC4C(CCC5CC(=O)CC[C@@]54C)C2CC[C@@H]3O)c1 (stereo partly shown) [EM-7118] | 7.2 nM | 176% | 31% | 0% | – | – | –
CCC(CC)NC(CC)c1cc(OCC[C@]23CCC4C(CCC5=CC(=O)CC[C@@]54C)C2CC[C@@H]3O)ccn1 (stereo partly shown) [EM-7136] | 0.2 nM | 92.7% and 93% | 27% | 35% | – | – | –

Reference: patent US9090651B2, “Helix 12 directed pharmaceutical products” (ENDORECHERCHE, INC., priority 2004, dated 2015)
